Residues, ends and D or L forms follow the SMILES beside them. *: point of attachment. Propionyl = CCC(=O)*
These compounds were tested on S. aureus JAR. Conditions: JAR, 2 h.
Format: cell-based
Procedure: S. aureus JAR is described in Campoccia et al. (Int. J. Artif. Organs, 2008 September; 31(9):841-7).
For the in vitro killing assay with P10 variants, S. aureus JAR ([…] CFU/ml) were incubated for 2 hours at 37° C. with various concentrations of the peptides in PBS or in PBS/human plasma (1/1, v/v). […] The LC99.9 is the average value of two independent experiments.
In the case of “Ac-LAREYKKIVEKLKRWLRQLLRTLR-NH2 [Peptide 1302-46, JLAREYKKIVEKLKRWLRQLLRTLRB]”, the “LC99.9 (μM) (50% plasma)” value is reported as 102.4 µM and the “LC99.9 (μM) (PBS)” value is reported as 1.6 µM.
“Ac-LAREYKKIVEKLKRWLRQVIRTLR-NH2 [Peptide 1302-47, JLAREYKKIVEKLKRWLRQVIRTLRB]” was tested, and the “LC99.9 (μM) (50% plasma)” value was 76.8 µM and the “LC99.9 (μM) (PBS)” value was 1.6 µM.
“Ac-LAREYKKIVEKLKRWLRQVL-NH2 [Peptide 1302-60, JLAREYKKIVEKLKRWLRQVLB]” was tested, and the “LC99.9 (μM) (50% plasma)” value was 102.4 µM and the “LC99.9 (μM) (PBS)” value was 1.6 µM.
“Ac-LAREYKKIVEKLKRWLRQVLHTLR-NH2 [Peptide 1302-51, JLAREYKKIVEKLKRWLRQVLHTLRB]” was tested, and the “LC99.9 (μM) (50% plasma)” value was 102.4 µM and the “LC99.9 (μM) (PBS)” value was 1.6 µM.
For “Ac-LAREYKKIVEKLKRWLRQVLKTLR-NH2 [Peptide 1302-50, JLAREYKKIVEKLKRWLRQVLKTLRB]”, the “LC99.9 (μM) (50% plasma)” value was 51.2 µM and the “LC99.9 (μM) (PBS)” value was 0.8 µM.
“Ac-LAREYKKIVEKLKRWLRQVLRALR-NH2 [Peptide 1302-54, JLAREYKKIVEKLKRWLRQVLRALRB]” was tested, and the “LC99.9 (μM) (50% plasma)” value was 51.2 µM and the “LC99.9 (μM) (PBS)” value was 0.8 µM.
For “Ac-LAREYKKIVEKLKRWLRQVLRNLR-NH2 [Peptide 1302-53, JLAREYKKIVEKLKRWLRQVLRNLRB]”, the “LC99.9 (μM) (50% plasma)” value was 51.2 µM and the “LC99.9 (μM) (PBS)” value was 1.6 µM.
In the case of “Ac-LAREYKKIVEKLKRWLRQVLRQLR-NH2 [Peptide 1302-52, JLAREYKKIVEKLKRWLRQVLRQLRB]”, the “LC99.9 (μM) (50% plasma)” value is reported as 76.8 µM and the “LC99.9 (μM) (PBS)” value is reported as 1.6 µM.
In the case of “Ac-LAREYKKIVEKLKRWLRQVLRT-NH2 [Peptide 1302-57, JLAREYKKIVEKLKRWLRQVLRTB]”, the “LC99.9 (μM) (50% plasma)” value is reported as 51.2 µM and the “LC99.9 (μM) (PBS)” value is reported as 1.6 µM.
With “Ac-LAREYKKIVEKLKRWLRQVLRTLH-NH2 [Peptide 1302-55, JLAREYKKIVEKLKRWLRQVLRTLHB]” the “LC99.9 (μM) (50% plasma)” value was 102.4 µM and the “LC99.9 (μM) (PBS)” value was 1.2 µM.
With “Ac-LAREYKKIVEKLKRWLRQVVRTLR-NH2 [Peptide 1302-48, JLAREYKKIVEKLKRWLRQVVRTLRB]” the “LC99.9 (μM) (50% plasma)” value was 76.8 µM and the “LC99.9 (μM) (PBS)” value was 1.2 µM.
For “Ac-LAREYKKIVEKLKRWLRSVLRTLR-NH2 [Peptide 1302-44, JLAREYKKIVEKLKRWLRSVLRTLRB]”, the “LC99.9 (μM) (50% plasma)” value was 76.8 µM and the “LC99.9 (μM) (PBS)” value was 1.6 µM.
“Ac-LAREYKKIVEKLKRWLRTVLRTLR-NH2 [Peptide 1302-45, JLAREYKKIVEKLKRWLRTVLRTLRB]” was tested, and the “LC99.9 (μM) (50% plasma)” value was 76.8 µM and the “LC99.9 (μM) (PBS)” value was 1.6 µM.
With “Ac-LAREYKKIVEKVKRWLRQVLRTLR-NH2 [Peptide 1302-34, JLAREYKKIVEKVKRWLRQVLRTLRB]” the “LC99.9 (μM) (50% plasma)” value was 102.4 µM and the “LC99.9 (μM) (PBS)” value was 3.2 µM.
With “Ac-LAREYKKIVERLKRWLRQVLRTLR-NH2 [Peptide 1302-31, JLAREYKKIVERLKRWLRQVLRTLRB]” the “LC99.9 (μM) (50% plasma)” value was 102.4 µM and the “LC99.9 (μM) (PBS)” value was 3.2 µM.
For “Ac-LAREYKKIVPKLKRWLRQVPRTLR-NH2 [Peptide 1302-15, JLAREYKKIVPKLKRWLRQVPRTLRB]”, the “LC99.9 (μM) (50% plasma)” value was 76.8 µM and the “LC99.9 (μM) (PBS)” value was >3.2 µM.
With “Ac-LAREYKKPVEKLKRWLPQVLRTLR-NH2 [Peptide 1302-16, JLAREYKKPVEKLKRWLPQVLRTLRB]” the “LC99.9 (μM) (50% plasma)” value was 102.4 µM and the “LC99.9 (μM) (PBS)” value was >3.2 µM.

Same assay, conditions: S. aureus JAR, 2 hours at 37° C. in PBS/human plasma (1/1, v/v); concentration killing 99.9% of the bacteria; average of two experiments
With `CCC(=O)N[C@@H](CC(C)C)C(=O)N[C@@H](C)C(=O)N[C@@H](CCCNC(=N)N)C(=O)N[C@@H](CCC(=O)O)C(=O)N[C@@H](Cc1ccc(O)cc1)C(=O)N[C@@H](CCCCN)C(=O)N[C@@H](CCCCN)C(=O)N[C@H](C(=O)N[C@H](C(=O)N[C@@H](CCC(=O)O)C(=O)N[C@@H](CCCCN)C(=O)N[C@@H](CC(C)C)C(=O)N[C@@H](CCCCN)C(=O)N[C@@H](CCCNC(=N)N)C(=O)N[C@@H](Cc1c[nH]c2ccccc12)C(=O)N[C@@H](CC(C)C)C(=O)N[C@@H](CCCNC(=N)N)C(=O)N[C@@H](CCC(N)=O)C(=O)N[C@H](C(=O)N[C@@H](CC(C)C)C(=O)N[C@@H](CCCNC(=N)N)C(=O)N[C@H](C(=O)N[C@@H](CC(C)C)C(=O)N[C@@H](CCCNC(=N)N)C(N)=O)[C@@H](C)O)C(C)C)C(C)C)[C@@H](C)CC` [Peptide 1302-11, ULAREYKKIVEKLKRWLRQVLRTLRB] (Propionyl-LAREYKKIVEKLKRWLRQVLRTLR-NH2) the “LC99.9 (μM) (50% plasma)” value was 102.4 µM.
For “Ac-LAREYKKIVEKLKRWLRQVARTLR-NH2 [Peptide 1302-49, JLAREYKKIVEKLKRWLRQVARTLRB]”, the “LC99.9 (μM) (50% plasma)” value was 51.2 µM.

Same assay, conditions: S. aureus JAR, 2 hours at 37° C. in PBS; concentration killing 99.9% of the bacteria; average of two experiments
With `CCC(=O)N[C@@H](CC(C)C)C(=O)N[C@@H](C)C(=O)N[C@@H](CCCNC(=N)N)C(=O)N[C@@H](CCC(=O)O)C(=O)N[C@@H](Cc1ccc(O)cc1)C(=O)N[C@@H](CCCCN)C(=O)N[C@@H](CCCCN)C(=O)N[C@H](C(=O)N[C@H](C(=O)N[C@@H](CCC(=O)O)C(=O)N[C@@H](CCCCN)C(=O)N[C@@H](CC(C)C)C(=O)N[C@@H](CCCCN)C(=O)N[C@@H](CCCNC(=N)N)C(=O)N[C@@H](Cc1c[nH]c2ccccc12)C(=O)N[C@@H](CC(C)C)C(=O)N[C@@H](CCCNC(=N)N)C(=O)N[C@@H](CCC(N)=O)C(=O)N[C@H](C(=O)N[C@@H](CC(C)C)C(=O)N[C@@H](CCCNC(=N)N)C(=O)N[C@H](C(=O)N[C@@H](CC(C)C)C(=O)N[C@@H](CCCNC(=N)N)C(N)=O)[C@@H](C)O)C(C)C)C(C)C)[C@@H](C)CC` [Peptide 1302-11, ULAREYKKIVEKLKRWLRQVLRTLRB] (Propionyl-LAREYKKIVEKLKRWLRQVLRTLR-NH2) the “LC99.9 (μM) (PBS)” value was 1.6 µM.
“Ac-LAREYKKIVEKLKRWLRQVARTLR-NH2 [Peptide 1302-49, JLAREYKKIVEKLKRWLRQVARTLRB]” was tested, and the “LC99.9 (μM) (PBS)” value was 1.6 µM.
